# Test results taken from ChEMBL document CHEMBL5537170, “Design, Synthesis, and Anti-Osteoporotic Characterization of Arginine N-Glycosylated Teriparatide Analogs via the Silver-catalyzed Solid-Phase Glycosylation Strategy” (J Med Chem, 2024).
# *1 amine or outer side, *2 acyl side, *3 side chain or, on linkers, in order; H or OH if unused. Where a SMILES comes first, the peptide text is derived from it. [ ]: non-standard residue; d: D form. X7 = N=C(NCCC[C@H](N[*:1])C(=O)[*:2])N[C@H]1O[C@H](CO)[C@@H](O)[C@H](O)[C@@H]1O
# Assay: Cytotoxicity against C57BL/6 mouse Pre-Osteoblast cells assessed as cell death upto 5 uM incubated for 4 days by CCK-8 assay
# Assay type: toxicity, cell-based
# Details: 96 h, time 4 day
row,Structure (SMILES),Activity
1,CC[C@H](C)[C@H](NC(=O)[C@H](CCC(=O)O)NC(=O)[C@H](CO)NC(=O)[C@@H](NC(=O)[C@H](CO)NC(C)=O)C(C)C)C(=O)N[C@@H](CCC(N)=O)C(=O)N[C@@H](CC(C)C)C(=O)N[C@@H](CCSC)C(=O)N[C@@H](Cc1cnc[nH]1)C(=O)N[C@@H](CC(N)=O)C(=O)N[C@@H](CC(C)C)C(=O)NCC(=O)N[C@@H](CCCCN)C(=O)N[C@@H](Cc1cnc[nH]1)C(=O)N[C@@H](CC(C)C)C(=O)N[C@@H](CC(N)=O)C(=O)N[C@@H](CO)C(=O)N[C@@H](CCSC)C(=O)N[C@@H](CCC(=O)O)C(=O)N[C@@H](CCCNC(=N)N)C(=O)N[C@H](C(=O)N[C@@H](CCC(=O)O)C(=O)N[C@@H](Cc1c[nH]c2ccccc12)C(=O)N[C@@H](CC(C)C)C(=O)N[C@@H](CCCNC(=N)N[C@@H]1O[C@H](CO)[C@@H](O)[C@H](O)[C@H]1NC(C)=O)C(=O)N[C@@H](CCCCN)C(=O)N[C@@H](CCCCN)C(=O)N[C@@H](CC(C)C)C(=O)N[C@@H](CCC(N)=O)C(=O)N[C@@H](CC(=O)O)C(=O)N[C@H](C(=O)N[C@@H](Cc1cnc[nH]1)C(=O)N[C@@H](CC(N)=O)C(=O)N[C@@H](Cc1ccccc1)C(N)=O)C(C)C)C(C)C,Non-Toxic
2,CC[C@H](C)[C@H](NC(=O)[C@H](CCC(=O)O)NC(=O)[C@H](CO)NC(=O)[C@@H](NC(=O)[C@H](CO)NC(C)=O)C(C)C)C(=O)N[C@@H](CCC(N)=O)C(=O)N[C@@H](CC(C)C)C(=O)N[C@@H](CCSC)C(=O)N[C@@H](Cc1cnc[nH]1)C(=O)N[C@@H](CC(N)=O)C(=O)N[C@@H](CC(C)C)C(=O)NCC(=O)N[C@@H](CCCCN)C(=O)N[C@@H](Cc1cnc[nH]1)C(=O)N[C@@H](CC(C)C)C(=O)N[C@@H](CC(N)=O)C(=O)N[C@@H](CO)C(=O)N[C@@H](CCSC)C(=O)N[C@@H](CCC(=O)O)C(=O)N[C@@H](CCCNC(=N)N)C(=O)N[C@H](C(=O)N[C@@H](CCC(=O)O)C(=O)N[C@@H](Cc1c[nH]c2ccccc12)C(=O)N[C@@H](CC(C)C)C(=O)N[C@@H](CCCNC(=N)N[C@@H]1O[C@H](CO)[C@H](O)[C@H](O)[C@H]1O)C(=O)N[C@@H](CCCCN)C(=O)N[C@@H](CCCCN)C(=O)N[C@@H](CC(C)C)C(=O)N[C@@H](CCC(N)=O)C(=O)N[C@@H](CC(=O)O)C(=O)N[C@H](C(=O)N[C@@H](Cc1cnc[nH]1)C(=O)N[C@@H](CC(N)=O)C(=O)N[C@@H](Cc1ccccc1)C(N)=O)C(C)C)C(C)C,Non-Toxic
3,CC[C@H](C)[C@H](NC(=O)[C@H](CCC(=O)O)NC(=O)[C@H](CO)NC(=O)[C@@H](NC(=O)[C@H](CO)NC(C)=O)C(C)C)C(=O)N[C@@H](CCC(N)=O)C(=O)N[C@@H](CC(C)C)C(=O)N[C@@H](CCSC)C(=O)N[C@@H](Cc1cnc[nH]1)C(=O)N[C@@H](CC(N)=O)C(=O)N[C@@H](CC(C)C)C(=O)NCC(=O)N[C@@H](CCCCN)C(=O)N[C@@H](Cc1cnc[nH]1)C(=O)N[C@@H](CC(C)C)C(=O)N[C@@H](CC(N)=O)C(=O)N[C@@H](CO)C(=O)N[C@@H](CCSC)C(=O)N[C@@H](CCC(=O)O)C(=O)N[C@@H](CCCNC(=N)N[C@@H]1O[C@H](CO)[C@@H](O[C@@H]2O[C@H](CO)[C@H](O)[C@H](O)[C@H]2O)[C@H](O)[C@H]1O)C(=O)N[C@H](C(=O)N[C@@H](CCC(=O)O)C(=O)N[C@@H](Cc1c[nH]c2ccccc12)C(=O)N[C@@H](CC(C)C)C(=O)N[C@@H](CCCNC(=N)N)C(=O)N[C@@H](CCCCN)C(=O)N[C@@H](CCCCN)C(=O)N[C@@H](CC(C)C)C(=O)N[C@@H](CCC(N)=O)C(=O)N[C@@H](CC(=O)O)C(=O)N[C@H](C(=O)N[C@@H](Cc1cnc[nH]1)C(=O)N[C@@H](CC(N)=O)C(=O)N[C@@H](Cc1ccccc1)C(N)=O)C(C)C)C(C)C,Non-Toxic
4,CC[C@H](C)[C@H](NC(=O)[C@H](CCC(=O)O)NC(=O)[C@H](CO)NC(=O)[C@@H](NC(=O)[C@H](CO)NC(C)=O)C(C)C)C(=O)N[C@@H](CCC(N)=O)C(=O)N[C@@H](CC(C)C)C(=O)N[C@@H](CCSC)C(=O)N[C@@H](Cc1cnc[nH]1)C(=O)N[C@@H](CC(N)=O)C(=O)N[C@@H](CC(C)C)C(=O)NCC(=O)N[C@@H](CCCCN)C(=O)N[C@@H](Cc1cnc[nH]1)C(=O)N[C@@H](CC(C)C)C(=O)N[C@@H](CC(N)=O)C(=O)N[C@@H](CO)C(=O)N[C@@H](CCSC)C(=O)N[C@@H](CCC(=O)O)C(=O)N[C@@H](CCCNC(=N)N)C(=O)N[C@H](C(=O)N[C@@H](CCC(=O)O)C(=O)N[C@@H](Cc1c[nH]c2ccccc12)C(=O)N[C@@H](CC(C)C)C(=O)N[C@@H](CCCNC(=N)N[C@@H]1O[C@@H](C)[C@H](O)[C@@H](O)[C@H]1O)C(=O)N[C@@H](CCCCN)C(=O)N[C@@H](CCCCN)C(=O)N[C@@H](CC(C)C)C(=O)N[C@@H](CCC(N)=O)C(=O)N[C@@H](CC(=O)O)C(=O)N[C@H](C(=O)N[C@@H](Cc1cnc[nH]1)C(=O)N[C@@H](CC(N)=O)C(=O)N[C@@H](Cc1ccccc1)C(N)=O)C(C)C)C(C)C,Non-Toxic
5,CC[C@H](C)[C@H](NC(=O)[C@H](CCC(=O)O)NC(=O)[C@H](CO)NC(=O)[C@@H](NC(=O)[C@H](CO)NC(C)=O)C(C)C)C(=O)N[C@@H](CCC(N)=O)C(=O)N[C@@H](CC(C)C)C(=O)N[C@@H](CCSC)C(=O)N[C@@H](Cc1cnc[nH]1)C(=O)N[C@@H](CC(N)=O)C(=O)N[C@@H](CC(C)C)C(=O)NCC(=O)N[C@@H](CCCCN)C(=O)N[C@@H](Cc1cnc[nH]1)C(=O)N[C@@H](CC(C)C)C(=O)N[C@@H](CC(N)=O)C(=O)N[C@@H](CO)C(=O)N[C@@H](CCSC)C(=O)N[C@@H](CCC(=O)O)C(=O)N[C@@H](CCCNC(=N)N[C@@H]1O[C@H](CO)[C@@H](O[C@H]2O[C@H](CO)[C@@H](O)[C@H](O)[C@H]2O)[C@H](O)[C@H]1O)C(=O)N[C@H](C(=O)N[C@@H](CCC(=O)O)C(=O)N[C@@H](Cc1c[nH]c2ccccc12)C(=O)N[C@@H](CC(C)C)C(=O)N[C@@H](CCCNC(=N)N)C(=O)N[C@@H](CCCCN)C(=O)N[C@@H](CCCCN)C(=O)N[C@@H](CC(C)C)C(=O)N[C@@H](CCC(N)=O)C(=O)N[C@@H](CC(=O)O)C(=O)N[C@H](C(=O)N[C@@H](Cc1cnc[nH]1)C(=O)N[C@@H](CC(N)=O)C(=O)N[C@@H](Cc1ccccc1)C(N)=O)C(C)C)C(C)C,Non-Toxic
6,CC[C@H](C)[C@H](NC(=O)[C@H](CCC(=O)O)NC(=O)[C@H](CO)NC(=O)[C@@H](NC(=O)[C@H](CO)NC(C)=O)C(C)C)C(=O)N[C@@H](CCC(N)=O)C(=O)N[C@@H](CC(C)C)C(=O)N[C@@H](CCSC)C(=O)N[C@@H](Cc1cnc[nH]1)C(=O)N[C@@H](CC(N)=O)C(=O)N[C@@H](CC(C)C)C(=O)NCC(=O)N[C@@H](CCCCN)C(=O)N[C@@H](Cc1cnc[nH]1)C(=O)N[C@@H](CC(C)C)C(=O)N[C@@H](CC(N)=O)C(=O)N[C@@H](CO)C(=O)N[C@@H](CCSC)C(=O)N[C@@H](CCC(=O)O)C(=O)N[C@@H](CCCNC(=N)N[C@@H]1O[C@H](CO)[C@@H](O[C@@H]2O[C@H](CO)[C@H](O)[C@H](O)[C@H]2O)[C@H](O)[C@H]1O)C(=O)N[C@H](C(=O)N[C@@H](CCC(=O)O)C(=O)N[C@@H](Cc1c[nH]c2ccccc12)C(=O)N[C@@H](CC(C)C)C(=O)N[C@@H](CCCNC(=N)N[C@@H]1O[C@H](CO)[C@@H](O[C@@H]2O[C@H](CO)[C@H](O)[C@H](O)[C@H]2O)[C@H](O)[C@H]1O)C(=O)N[C@@H](CCCCN)C(=O)N[C@@H](CCCCN)C(=O)N[C@@H](CC(C)C)C(=O)N[C@@H](CCC(N)=O)C(=O)N[C@@H](CC(=O)O)C(=O)N[C@H](C(=O)N[C@@H](Cc1cnc[nH]1)C(=O)N[C@@H](CC(N)=O)C(=O)N[C@@H](Cc1ccccc1)C(N)=O)C(C)C)C(C)C,Non-Toxic
7,CC[C@H](C)[C@H](NC(=O)[C@H](CCC(=O)O)NC(=O)[C@H](CO)NC(=O)[C@@H](NC(=O)[C@H](CO)NC(C)=O)C(C)C)C(=O)N[C@@H](CCC(N)=O)C(=O)N[C@@H](CC(C)C)C(=O)N[C@@H](CCSC)C(=O)N[C@@H](Cc1cnc[nH]1)C(=O)N[C@@H](CC(N)=O)C(=O)N[C@@H](CC(C)C)C(=O)NCC(=O)N[C@@H](CCCCN)C(=O)N[C@@H](Cc1cnc[nH]1)C(=O)N[C@@H](CC(C)C)C(=O)N[C@@H](CC(N)=O)C(=O)N[C@@H](CO)C(=O)N[C@@H](CCSC)C(=O)N[C@@H](CCC(=O)O)C(=O)N[C@@H](CCCNC(=N)N[C@H]1O[C@H](CO)[C@@H](O)[C@H](O)[C@@H]1O)C(=O)N[C@H](C(=O)N[C@@H](CCC(=O)O)C(=O)N[C@@H](Cc1c[nH]c2ccccc12)C(=O)N[C@@H](CC(C)C)C(=O)N[C@@H](CCCNC(=N)N[C@H]1O[C@H](CO)[C@@H](O)[C@H](O)[C@@H]1O)C(=O)N[C@@H](CCCCN)C(=O)N[C@@H](CCCCN)C(=O)N[C@@H](CC(C)C)C(=O)N[C@@H](CCC(N)=O)C(=O)N[C@@H](CC(=O)O)C(=O)N[C@H](C(=O)N[C@@H](Cc1cnc[nH]1)C(=O)N[C@@H](CC(N)=O)C(=O)N[C@@H](Cc1ccccc1)C(N)=O)C(C)C)C(C)C (Ac-SVSEIQLMHNLGKHLNSME[X7]VEWL[X7]KKLQDVHNF-NH2),Non-Toxic
8,CC[C@H](C)[C@H](NC(=O)[C@H](CCC(=O)O)NC(=O)[C@H](CO)NC(=O)[C@@H](NC(=O)[C@H](CO)NC(C)=O)C(C)C)C(=O)N[C@@H](CCC(N)=O)C(=O)N[C@@H](CC(C)C)C(=O)N[C@@H](CCSC)C(=O)N[C@@H](Cc1cnc[nH]1)C(=O)N[C@@H](CC(N)=O)C(=O)N[C@@H](CC(C)C)C(=O)NCC(=O)N[C@@H](CCCCN)C(=O)N[C@@H](Cc1cnc[nH]1)C(=O)N[C@@H](CC(C)C)C(=O)N[C@@H](CC(N)=O)C(=O)N[C@@H](CO)C(=O)N[C@@H](CCSC)C(=O)N[C@@H](CCC(=O)O)C(=O)N[C@@H](CCCNC(=N)N[C@@H]1O[C@H](CO)[C@H](O)[C@H](O)[C@H]1O)C(=O)N[C@H](C(=O)N[C@@H](CCC(=O)O)C(=O)N[C@@H](Cc1c[nH]c2ccccc12)C(=O)N[C@@H](CC(C)C)C(=O)N[C@@H](CCCNC(=N)N)C(=O)N[C@@H](CCCCN)C(=O)N[C@@H](CCCCN)C(=O)N[C@@H](CC(C)C)C(=O)N[C@@H](CCC(N)=O)C(=O)N[C@@H](CC(=O)O)C(=O)N[C@H](C(=O)N[C@@H](Cc1cnc[nH]1)C(=O)N[C@@H](CC(N)=O)C(=O)N[C@@H](Cc1ccccc1)C(N)=O)C(C)C)C(C)C,Non-Toxic
